Values after ≈ are worked out from the molar mass of the structure shown. Peptide text beside a SMILES is read from it.
Legend:
Type in all cases: functional
SK-MEL-5 = test: Growth inhibitory activity against SK-MEL-5 human cancer cell line
KM-20L2 = test: Growth inhibitory activity against KM20L2 human cancer cell line
NCI-H460 = test: Growth inhibitory activity against NCI-H460 human cancer cell line
A498 = test: Growth inhibitory activity against A498 human cancer cell line
OVCAR-3 = test: Growth inhibitory activity against OVCAR-3 human cancer cell line
SF-295 = test: Growth inhibitory activity against SF-295 human cancer cell line
P388 = test: Inhibitory activity against murine P388 leukemia cell line; conditions: Mus musculus, read-out: ED50 (the source's name)

Compound | GI50 (SK-MEL-5; read-out: GI50) | GI50 (KM-20L2; read-out: GI50) | GI50 (NCI-H460) | GI50 (A498; read-out: GI50) | GI50 (OVCAR-3; read-out: GI50) | GI50 (SF-295; read-out: GI50) | EC50 (P388) | GI50 (SK-MEL-5) | GI50 (KM-20L2) | GI50 (A498) | GI50 (OVCAR-3) | GI50 (SF-295)
CC[C@H](C)[C@@H]1NC(=O)[C@H](CC(C)C)NC(=O)[C@@H]2CCCN2C(=O)[C@H](C(C)C)NC(=O)[C@H](Cc2ccc(O)cc2)NC(=O)[C@@H]2CCCN2C(=O)[C@@H]2CCCN2C(=O)[C@H](CC(C)C)NC1=O [AXINASTATIN 5] (cyclo(ILPPYVPL)) | 0.5 µg/mL (≈ 0.56 µM) | 0.7 µg/mL (≈ 0.784 µM) | 0.5 µg/mL (≈ 0.56 µM) | 2.3 µg/mL (≈ 2.58 µM) | 0.3 µg/mL (≈ 0.336 µM) | 1.6 µg/mL (≈ 1.79 µM) | 3.5 µg/mL (≈ 3.92 µM) |  |  |  |  | 
CC[C@H](C)[C@@H]1NC(=O)[C@H](CC(C)C)NC(=O)[C@@H]2CCCN2C(=O)[C@H](C(C)C)NC(=O)[C@H](Cc2ccc(O)cc2)NC(=O)[C@@H]2CCCN2C(=O)[C@@H]2CCCN2C(=O)[C@H]([C@@H](C)CC)NC1=O [Hymenistatin 1] (cyclo(IIPPYVPL)) |  |  | 0.3 µg/mL (≈ 0.336 µM) |  |  |  |  | 0.6 µg/mL (≈ 0.672 µM) | 0.1 µg/mL (≈ 0.112 µM) | 0.7 µg/mL (≈ 0.784 µM) | 0.04 µg/mL (≈ 0.0448 µM) | 0.3 µg/mL (≈ 0.336 µM)
